Source: ChEMBL document CHEMBL1124754, “Hypoxia-selective antitumor agents. 4. Relationships between structure, physicochemical properties, and hypoxia-selective cytotoxicity for nitracrine analogues with varying side chains: the "iminoacridan hypothesis"” (J Med Chem, 1990)

Assays:
[1] = Tested for the concentration of the drug to reduce cell numbers to 50 percent of controls against AA8 cells in the microassay; type: functional, cell-based, Cricetulus griseus; details: cho-aa8
[2] = Acridine pKa values were determined in aqueous solution at 25 degrees Centigrade by spectrophotometric method.; type: physicochemical
[3] = Hypersensitivity factor, IC50 (AA8) air /IC50 (UV4) in air; type: functional
[4] = CT10 (air/N2) ratio of the product of the drug concentration to the exposure time needed to reduce cell survival to 10% of controls using AA8 cells at 10 E 6 /mL in the clonogenic assay; type: functional, Cricetulus griseus, CHO-AA8
[5] = Hypersensitivity factor, IC50 (AA8) air /IC50 (UV4) in N2; type: functional
[6] = IC50 (air/N2) ratio of the drug to reduce cell numbers to 50 percent of controls using AA8 cells in the microassay; type: functional, Cricetulus griseus, CHO-AA8
[7] = Tested for the product of the drug concentration to the exposure time needed to reduce cell survival to 10% of controls using AA8 cells at 10 E 6 /mL in the clonogenic assay; type: functional, Cricetulus griseus, CHO-AA8
[8] = CT10 (air/N2) ratio of the product of the drug concentration to the exposure time needed to reduce cell survival to 10% of controls using AA8 cells at 10 E 6 /mL in the clonogenic assay; range is 0.8-1.5; type: functional, Cricetulus griseus, CHO-AA8
[9] = CT10 (air/N2) ratio of the product of the drug concentration to the exposure time needed to reduce cell survival to 10% of controls using AA8 cells at 10 E 6 /mL in the clonogenic assay; range is 1-2; type: functional, Cricetulus griseus, CHO-AA8

Row | Structure (SMILES) | IC50 [1] [µM] | pKa [2] | HF [3] | CT10 ratio [4] | HF [5] | IC50 ratio [6] | CT10 [7] [µM·h] | CT10 ratio [8] | CT10 ratio [9]
1 | CN(C)CCNc1c2ccccc2nc2cccc([N+](=O)[O-])c12 | 0.047 | 4.9 | 19 | 14 | 15 | 7.4 | 1.22 |  | 
2 | CN(C)CCCNc1c2ccccc2nc2cccc([N+](=O)[O-])c12 [NITRACRINE] | 0.0263 | 6.2 | 12.9 | 9.9 | 14.9 | 3.5 | 0.47 |  | 
3 | CNc1c2ccccc2nc2cccc([N+](=O)[O-])c12 | 0.0038 | 7.2 | 11 |  | 11 | 1.3 | 0.01 | 1.5 | 
4 | CC(C)CCNc1c2ccccc2nc2cccc([N+](=O)[O-])c12 | 0.12 | 7.4 | 12 | 2.4 | 16 | 1.13 | 3.2 |  | 
5 | O=[N+]([O-])c1cccc2nc3ccccc3c(NCCCO)c12 | 0.027 | 7.55 | 15 | 3 | 13 | 1.45 | 0.43 |  | 
6 | O=[N+]([O-])c1cccc2nc3ccccc3c(NCc3ccccc3)c12 | 0.38 | 7.4 | 12 | 1.9 | 17 | 1.2 | 9 |  | 
7 | O=[N+]([O-])c1cccc2nc3ccccc3c(NCCc3ccccc3)c12 | 0.122 | 7.4 | 14 | 2.3 | 15 | 1.3 | 2.8 |  | 
8 | O=C(O)CCCNc1c2ccccc2nc2cccc([N+](=O)[O-])c12 | 18 |  | 6.1 | 2.5 | 6.6 | 4.2 | 50 |  | 
9 | CNCCCNc1c2ccccc2nc2cccc([N+](=O)[O-])c12 | 0.034 | 6.2 | 14 | 5.9 | 11 | 4.8 | 0.38 |  | 
10 | Nc1c2ccccc2nc2cccc([N+](=O)[O-])c12 | 3.6 | 7.3 | 4.5 |  | 5.8 | 1.02 | 3.9 |  | 2
11 | CN(C)CCCCCNc1c2ccccc2nc2cccc([N+](=O)[O-])c12 | 0.0155 | 7.4 |  | 7 |  | 1.65 | 0.32 |  | 
12 | CN(C)CCCCNc1c2ccccc2nc2cccc([N+](=O)[O-])c12 | 0.026 | 6.9 | 20 | 11.9 | 29 | 2.6 | 0.46 |  | 
13 | CCCNc1c2ccccc2nc2cccc([N+](=O)[O-])c12 | 0.032 | 7.2 | 11 | 3.4 | 20 | 1.42 | 0.62 |  | 
14 | CN(C)CCCCCCNc1c2ccccc2nc2cccc([N+](=O)[O-])c12 | 0.0115 | 7.4 |  | 6.8 |  | 1.55 | 0.38 |  | 
15 | O=[N+]([O-])c1cccc2nc3ccccc3c(NCCO)c12 | 0.0115 | 7.2 | 15 | 3.2 | 18 | 1.1 | 0.13 |  | 
